US9603836B2, “Pyrrolidine-2, 5-dione derivatives, pharmaceutical compositions and methods for use as IDO1 inhibitors” (ITEOS THERAPEUTICS, priority 2014, dated 2017)

Experiments:
[1] = tested on: PancO2 tumors; test: In vivo efficacy in PancO2 pancreatic cancer syngeneic model; design: species or system C57/B16 mice; conditions: PancO2, 200 mg/kg BID oral
Experimental: In vivo efficacy studies of the Compounds of the present invention were performed on PancO2 syngeneic tumor model of C57/B16 mice implanted subcutaneously. Five millions PancO2 pancreas cancer cells were implanted subcutaneously to 7 weeks old C57/B16 mice (day 0). Animals were randomized based on tumor size when tumor average reached 60 mm^3 (between day 10 and 12) into different treatment cohorts. The Compound was administered orally twice per day (approximately at 9 am and 5 pm) starting the day of randomization. The Compound was suspended into Methocel vehicle and sonicated before oral administration to animals using gavage needles. Treatment was administered daily until the end of the study. All experimental animals were monitored for body weight changes weekly. Tumor volume was measured weekly using a caliper device and calculated with the following formula: Tumor volume=0.5×(length×width^2). Studies were terminated before tumor volumes reached 2000 mm. TGI (% tumor growth inhibition) was determined as
Treatment was administered daily until the end of the study. Tumor volume was measured weekly using a caliper device and calculated with the following formula: Tumor volume=0.5×(length×width^2). Mice were considered as dead when tumor size reached 400 mm^3. […] SEM refers to standard error of measurement.

[2] = tested on: 4T1 tumors; test: In vivo efficacy in 4T1 breast cancer syngeneic model; design: species or system Balb/c mice; conditions: 4T1, 100 mg/kg BID oral
Experimental: In vivo efficacy studies for Compounds of the present invention were performed on 4T1 syngeneic tumor model of Balb/c mice implanted orthotopically in the mammary gland. One hundred thousand 4T1 breast cancer cells (ATCC® CRL-2539™)] were implanted orthotopically within the mammary gland of 7 weeks old Balb/c mice (day 0). Animals were randomized based on tumor size when tumor average reached 60 mm^3 (between day 7 and 11) into different treatment cohorts. The Compound of the present invention was administered orally twice per day (approximately at 9 am and 5 pm) starting the day of randomization. The Compounds were suspended into Methocel™ cellulose ether vehicle and sonicated before oral administration to animals using gavage needles. Treatment was administered daily until the end of the study. All experimental animals were monitored for body weight changes twice weekly. Tumor volume was measured twice a week by a caliper device and calculated with the following formula: Tumor volume=0.5×(length×width^2). Studies were terminated before tumor volumes reached 2000 mm. TGI (% tumor growth inhibition) was determined as […]

[3] = tested on: Kynurenine; test: Inhibition of tryptophan degradation in 4T1 tumor tissue; type: in vivo, Balb/c mice; conditions: 200 mg/kg oral twice per day, 4 h after administration
Experimental: Compounds of this invention are capable of lowering kynurenine concentration within mouse tumors, for example 4T1 syngeneic tumors of Balb/c mice implanted orthotopically in the mammary gland. One hundred thousand 4T1 breast cancer cells were implanted orthotopically within the mammary gland of 7 weeks old Balb/c mice (day 0). Animals were randomized based on tumor size when tumor average reached 60 mm^3 (day 6) into different treatment cohorts (n=10/group). Animals were treated with Methocel vehicle from day 6 to 26 until tumors reached a size comprised between 1500 and 2000 mm^3. […] The tumor was removed, weighted and frozen on dry ice. Tumors were analyzed by LC/MS-MS for Kynurenine concentration.

[4] = tested on: Kynurenine; test: In-vivo inhibition of blood kynurenine levels in healthy mice; design: species or system mouse; conditions: two hours
Experimental: The compounds of the present invention reduce the amount of Kynurenine in healthy mouse blood.
Briefly, mice were treated with either a suspension of one of the compounds of the present invention in 0.5% hydroxypropyl methylcellulose (HPMC) K4M/0.25% Tween 20 at different doses, or with a vehicle control (0.5% HPMC K4M/0.25% Tween 20), by the oral route by gavage (dosing volume 5 mL/kg, 10 mice per group). After two hours, blood was harvested, plasma was prepared and the amount of Kynurenine present was determined by LC-MS-MS (HPLC column Unison UK-Phenyl, 75×4.6, 3 μm, flow rate 0.8 mL/min, 4 minutes gradient from water+0.2% acetic acid to methanol+0.1% formic acid, retention time 2.7 min; API4000™ MS-MS system from AB Sciex, ESI+ mode, parent ion 209.2, daughter ion 94.1).

[5] = tested on: Kynurenine; test: Inhibition of tryptophan degradation in CT26 tumor tissue; type: in vivo, Balb/c mice; conditions: 200 mg/kg oral twice per day, 2 h after administration
Text: (§1) In the present study, CT26 syngeneic tumors were implanted subcutaneously in Balb-c mice. More particularly, Five hundred thousand (500,000) CT26 colon carcinoma cancer cells [CT26.WT, available from the ATCC® CRL-2628™] were implanted subcutaneously in 7 weeks old Balb/c mice (day 0). Animals were randomized based on tumor size when tumor average reached 150 mm^3 (day 11) into different treatment cohorts (n=10/group). […] The tumor was removed, weighted and frozen on dry ice. Tumors were analyzed by LC/MS-MS for Kynurenine concentration.

[6] = tested on: CT26 tumors; test: Tumor growth inhibition in CT26 colon syngeneic mouse tumor model; type: in vivo, Balb/c mice
Text: as §1
In a separate study, anti-tumor efficacy of IDO-1 inhibition was tested in the colon syngeneic mouse tumor model CT26 with a range of different treatment regimens. The model was essentially as described above, except that 1×10^6 cells in phosphate buffered saline (PBS) were implanted subcutaneously in the flank of 8 week old Balb/c females on day 0 (10 in each group). Mice were randomized into treatment groups (100 mg/kg BID, 200 mg/kg BID or 600 mg/kg BID) based on tumor size on day 9 when treatment started. The results are shown the following table and in FIG. 7.

O=C1CC(c2c[nH]c3ccc(F)cc23)C(=O)N1 (racemic) [Compound 1, 3-(5-fluoro-1H-indol-3-yl)pyrrolidine-2,5-dione]
Mean tumor volume on day 42 [1]: 457.0 mm^3
TGI (Tumor growth inhibition) ([1]; day 42): 26.2%
Mean tumor volume on day 25 [2]: 443.7 mm^3
TGI (Tumor growth inhibition) ([2]; day 25): 43.4%
Kynurenine concentration (ng/g tumor) Average ± SEM [3]: 417.2 ± 55.7 ng/g tumor
reduction of Kynurenine concentration [3]: 47%
Kynurenine concentration in plasma (average ± standard error of the mean) ([4]; 100 mg/kg oral): 111.1 ± 27.0 ng/mL
inhibition of circulating Kynurenine ([4]; 100 mg/kg oral): 41%
Kynurenine concentration in plasma (average ± standard error of the mean) ([4]; 200 mg/kg oral): 77.7 ± 9.2 ng/mL
inhibition of circulating Kynurenine ([4]; 200 mg/kg oral): 59%
Kynurenine concentration (ng/g tumor) Average ± SEM [5]: 876 ± 68 ng/g tumor
reduction of Kynurenine concentration [5]: 59%
% TGI (D15) ([6]; CT26, 100 mg/kg BID): 29%
% TGI (D17) ([6]; CT26, 100 mg/kg BID): 33%
% TGI (D20) ([6]; CT26, 100 mg/kg BID): 20%
% TGI (D15) ([6]; CT26, 200 mg/kg BID): 38%
% TGI (D17) ([6]; CT26, 200 mg/kg BID): 41%
% TGI (D20) ([6]; CT26, 200 mg/kg BID): 34%
% TGI (D15) ([6]; CT26, 600 mg/kg BID): 36%
% TGI (D17) ([6]; CT26, 600 mg/kg BID): 51%
% TGI (D20) ([6]; CT26, 600 mg/kg BID): 38%
